This experiment addresses T1, recombinant human TrxR1 (Homo sapiens, UniProt Q16881).
T1 construct: purchased Abcam ab204206
T1 sequence (Q16881 1-499 isoform Q16881-5): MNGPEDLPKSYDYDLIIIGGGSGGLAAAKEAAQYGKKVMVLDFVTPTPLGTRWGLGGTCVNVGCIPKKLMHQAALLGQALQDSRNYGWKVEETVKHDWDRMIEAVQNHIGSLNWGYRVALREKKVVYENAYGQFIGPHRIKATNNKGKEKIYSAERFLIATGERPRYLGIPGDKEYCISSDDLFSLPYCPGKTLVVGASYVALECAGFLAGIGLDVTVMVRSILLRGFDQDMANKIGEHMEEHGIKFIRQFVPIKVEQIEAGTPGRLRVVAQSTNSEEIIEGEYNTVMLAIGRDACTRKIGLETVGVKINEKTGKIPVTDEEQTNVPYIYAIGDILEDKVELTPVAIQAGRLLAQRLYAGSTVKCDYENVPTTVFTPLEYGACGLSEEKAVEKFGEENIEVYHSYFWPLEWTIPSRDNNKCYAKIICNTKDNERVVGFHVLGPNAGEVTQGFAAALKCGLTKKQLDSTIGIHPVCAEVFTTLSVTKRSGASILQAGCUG
Put plainly: In vitro TrxR1 activity assay (DTNB reduction). It is filed as biochemical. The method, then: The in vitro TrxR1 activity assay was performed using the DTNB reduction assay. Briefly, 0.1 μM recombinant human TrxR1 or TrxR1 without Sec498 residue (TrxR1 nSec) protein was reduced with 100 μM NADPH in assay buffer (50 mM Tris-HCl, 1 mM EDTA, pH = 7.5) for 30 min at room temperature. The reduced proteins was then treated with the indicated concentrations of PepE (final concentrations of 0.25, 0.5, 1, 2, 4, 6 μM), respectively, and incubated for 1 h at 37 °C. A mixture of assay buffer solution (50 mM Tris-HCl, 1 mM EDTA, pH = 7.5) containing DTNB and NADPH was added then added, making the final concentrations of DTNB and NADPH 2 mM and 200 μM, respectively. The absorbance was monitored at 412 nm using the SpectraMax i3x microplate reader (Molecular Devices). The linear increase of absorbance during the initial 3 min was recorded for calculating the relative enzyme activity. The same amount of DMSO was added to the control experiments and the activity is expressed as the percentage of the control.

The IC50 is the concentration at which inhibition is half-maximal. For the compound `C=C1C(=O)OC[C@H]1C(c1cc(OC)c2c(c1)OCO2)c1cc(OC)c2c(c1)OCO2` [PepE, Peperomin E], the IC50 (DTNB reduction assay, NADPH-reduced TrxR1 0.1 μM, 1 h at 37 °C) worked out at 940 nM. The “reversibility of TrxR1 inhibition” value (removal of PepE by Sephadex G-25 desalting column did not recover activity (data not shown)) is “irreversibly”.

These data come from PMC6434189, “Peperomin E and its orally bioavailable analog induce oxidative stress-mediated apoptosis of acute myeloid leukemia progenitor cells by targeting thioredoxin reductase” (Redox Biology, 2019).
